“And” between values parts separate entries of the source, which are not always exact repeats. Identical values can stand only once. Like-named read-outs stand apart in the source and are kept apart here.
What was measured:
[1] = test system: p53 signaling (p53RE-bla HCT-116 cells); test: cells; assay type: cell-based
[2] = test system: p53 signaling (p53RE-bla HCT-116 cells)
[3] = test system: p53 signaling (p53RE-bla HCT-116 cells); remark: listed apart in the source
[4] = test system: p53RE-bla HCT-116 cells
[5] = Homo sapiens, HCT-116, read-out: p53 activation EC50, primary screening
[6] = Homo sapiens, HCT-116, read-out: p53 activation efficacy, primary screening
[7] = read-out: p53 activation EC50, cherry pick confirmation
[8] = read-out: p53 activation EC50, primary screening

Compound	p53 activation efficacy, cherry pick confirmation [1]	p53 activation EC50, cherry pick confirmation [2]	p53 activation EC50, primary screening [2]	p53 activation efficacy, cherry pick confirmation [2]	p53 activation efficacy, primary screening [2]	p53 activation EC50, cherry pick confirmation [3]	p53 activation EC50, primary screening [3]	p53 activation efficacy, cherry pick confirmation [3]	p53 activation efficacy, primary screening [3]	Viability EC50, cherry pick confirmation [4]	Viability EC50, primary screening [4]	Viability efficacy, cherry pick confirmation [4]	Viability efficacy, primary screening [4]	p53 activation efficacy, primary screening [1]	EC50 [1, 7]	EC50 [1, 8]	further results
C[C@H]1CCCC(=O)CCC/C=C/c2cc(O)cc(O)c2C(=O)O1 [Zearalenone]	inactive	inactive	inactive	inactive	inactive	inactive	inactive	inactive	inactive	inactive	inactive	inactive	inactive	–	–	–	p53 activation EC50, cherry pick confirmation [1]: inactive; EC50 [1, 5]: 16.8 µM; Emax [1, 6]: 49.2%
CCC(C)(NC(=O)c1cc(Cl)c(C)c(Cl)c1)C(=O)CCl (stereo not shown) [Zoxamide]	–	inactive	inactive	inactive	inactive	inactive	inactive	inactive	inactive	inactive	inactive	inactive	inactive	–	–	–	EC50 ([1]; Homo sapiens, HCT-116, read-out: p53 activation EC50, cherry pick confirmation): 22.3 µM; EC50 [1, 5]: 38 µM; Emax ([1]; Homo sapiens, HCT-116, read-out: p53 activation efficacy, cherry pick confirmation): 94.8%; Emax [1, 6]: 50.7%
Acriflavine hydrochloride	281.114	inactive	inactive	inactive	inactive	inactive	inactive	inactive	inactive	inactive	inactive	inactive	inactive	193.527	2.46 µM	5.41 µM	–
Chlorpyrifos oxon	–	–	–	–	–	–	–	–	–	–	–	–	–	–	–	–	p53 activation EC50 [1]: inactive; p53 activation efficacy [1]: inactive; EC50 [2]: 0.02 µM; p53 activation efficacy [2]: 33.1727 and 49.6483; p53 activation EC50 [3]: inactive; EC50 ([3]; read-out: p53 activation EC50): 2.91 µM; Viability EC50 [4]: inactive; Viability efficacy [4]: inactive
Demeton	inactive	–	–	–	–	inactive	–	–	–	inactive	inactive	inactive	inactive	inactive	–	–	p53 activation EC50, cherry pick confirmation [1]: inactive; p53 activation EC50, primary screening [1]: inactive; EC50 [2]: 1.91 µM; EC50 [2, 7]: 1.7 µM
PharmaGSID_48505	67.8753	inactive	inactive	inactive	inactive	inactive	inactive	inactive	inactive	inactive	inactive	inactive	inactive	66.729	2.82 µM	0.396 µM	–
Potassium dichromate	–	inactive	inactive	inactive	inactive	inactive	inactive	inactive	inactive	inactive	inactive	–	–	47.8443	14.9 µM	8.27 µM	EC50 ([4]; read-out: Viability EC50, cherry pick confirmation): 34.6 µM and 20.2 µM; EC50 ([4]; read-out: Viability EC50, primary screening): 21.3 µM and 31 µM
Tannic acid	97.9477	inactive	inactive	inactive	inactive	inactive	inactive	inactive	inactive	inactive	inactive	inactive	inactive	41.698	7.77 µM	–	–
Thimerosal	–	–	–	–	–	–	–	–	–	–	–	–	–	–	–	–	p53 activation Efficacy, No MS [1]: 73.3573% and 52.656%; p53 activation EC50, RLM [2]: inactive; p53 activation Efficacy, RLM [2]: inactive; p53 activation EC50, HLM [3]: inactive; EC50 ([3]; read-out: p53 activation EC50, HLM): 5.03 µM; EC50 ([4]; read-out: Viability EC50, HLM): 10.6 µM and 8.9 µM; EC50 ([4]; read-out: Viability EC50, No MS): 8.56 µM and 9.16 µM; EC50 ([4]; read-out: Viability EC50, RLM): 8.9 µM
